Measured values taken from ChEMBL document CHEMBL4330132, “5-Keto-3-cyano-2,4-diaminothiophenes as selective maternal embryonic leucine zipper kinase inhibitors” (Bioorg Med Chem Lett, 2019).

How the values were obtained:
[1] = biological target: Epithelial discoidin domain-containing receptor 1 (Homo sapiens) (UniProt Q08345); experiment: Binding affinity to wild-type human partial length DDR1 (R565 to V876 residues) expressed in bacterial expression system assessed as residual binding level at 1 uM by Kinomescan method relative to control
[2] = biological target: Tyrosine-protein kinase receptor UFO (Homo sapiens) (UniProt P30530); experiment: Binding affinity to wild-type human partial length AXL (R497 to Y821 residues) expressed in bacterial expression system assessed as residual binding level at 1 uM by Kinomescan method relative to control
[3] = biological target: MAP/microtubule affinity-regulating kinase 4 (Homo sapiens) (UniProt Q96L34); experiment: Binding affinity to wild-type human partial length MARK4 (K29 to G340 residues) expressed in bacterial expression system assessed as residual binding level at 1 uM by Kinomescan method relative to control
[4] = biological target: Mitogen-activated protein kinase kinase kinase kinase 4 (Homo sapiens) (UniProt O95819); experiment: Binding affinity to wild-type human partial length MAP4K4 (M1 to R310 residues) expressed in bacterial expression system assessed as residual binding level at 1 uM by Kinomescan method relative to control
Chain of Mitogen-activated protein kinase kinase kinase kinase 4 (Homo sapiens) (O95819 2-1239 limits assumed): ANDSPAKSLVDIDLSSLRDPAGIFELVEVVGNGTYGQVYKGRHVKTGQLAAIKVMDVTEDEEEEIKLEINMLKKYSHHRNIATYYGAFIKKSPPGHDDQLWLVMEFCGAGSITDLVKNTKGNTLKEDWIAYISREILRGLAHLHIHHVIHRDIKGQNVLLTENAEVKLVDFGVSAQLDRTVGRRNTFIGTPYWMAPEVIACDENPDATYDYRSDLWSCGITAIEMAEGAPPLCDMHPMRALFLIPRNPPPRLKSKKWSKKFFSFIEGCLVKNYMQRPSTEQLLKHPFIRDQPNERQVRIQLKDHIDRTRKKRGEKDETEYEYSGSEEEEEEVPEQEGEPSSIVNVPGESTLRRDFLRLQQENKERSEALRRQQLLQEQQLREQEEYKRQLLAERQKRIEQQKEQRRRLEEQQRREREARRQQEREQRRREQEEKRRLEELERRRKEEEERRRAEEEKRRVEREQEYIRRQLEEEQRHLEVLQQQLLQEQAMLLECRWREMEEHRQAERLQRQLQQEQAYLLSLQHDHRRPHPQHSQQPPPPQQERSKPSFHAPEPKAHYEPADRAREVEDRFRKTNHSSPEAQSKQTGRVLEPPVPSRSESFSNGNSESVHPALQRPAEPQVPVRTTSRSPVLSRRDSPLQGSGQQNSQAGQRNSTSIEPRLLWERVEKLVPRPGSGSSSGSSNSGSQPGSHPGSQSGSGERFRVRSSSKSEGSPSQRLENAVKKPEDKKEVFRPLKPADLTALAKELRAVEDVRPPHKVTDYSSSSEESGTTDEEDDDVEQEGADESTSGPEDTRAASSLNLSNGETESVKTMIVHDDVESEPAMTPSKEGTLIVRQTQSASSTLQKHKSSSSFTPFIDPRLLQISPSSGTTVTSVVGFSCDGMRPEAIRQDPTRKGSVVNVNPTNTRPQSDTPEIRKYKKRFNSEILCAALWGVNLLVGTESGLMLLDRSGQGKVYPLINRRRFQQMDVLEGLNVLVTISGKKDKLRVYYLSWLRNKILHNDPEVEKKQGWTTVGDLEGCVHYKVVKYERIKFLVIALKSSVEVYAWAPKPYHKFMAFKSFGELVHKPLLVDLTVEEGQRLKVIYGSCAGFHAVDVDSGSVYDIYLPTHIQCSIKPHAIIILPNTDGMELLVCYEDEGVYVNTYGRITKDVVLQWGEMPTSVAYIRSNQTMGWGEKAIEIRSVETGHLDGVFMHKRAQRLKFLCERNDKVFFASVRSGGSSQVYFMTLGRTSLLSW

[5] = biological target: Vascular endothelial growth factor receptor 2 (Homo sapiens) (UniProt P35968); experiment: Binding affinity to wild-type human partial length VEGFR2 (R787 to P1253 residues) expressed in mammalian expression system assessed as residual binding level at 1 uM by Kinomescan method relative to control
[6] = biological target: Tyrosine-protein kinase receptor TYRO3 (Homo sapiens) (UniProt Q06418); experiment: Binding affinity to wild-type human partial length TYRO3 (S497 to T814 residues) expressed in bacterial expression system assessed as residual binding level at 1 uM by Kinomescan method relative to control
[7] = biological target: Serine/threonine-protein kinase Chk1 (Homo sapiens) (UniProt O14757); experiment: Binding affinity to wild-type human partial length CHEK1 (M1 to G289 residues) expressed in bacterial expression system assessed as residual binding level at 1 uM by Kinomescan method relative to control
[8] = biological target: Protein kinase C epsilon type (Homo sapiens) (UniProt Q02156); experiment: Binding affinity to wild-type human partial length PRKCE (A378 to P737 residues) expressed in mammalian expression system assessed as residual binding level at 1 uM by Kinomescan method relative to control
Chain of Protein kinase C epsilon type (Homo sapiens) (Q02156 whole entry, the tested form may be a part): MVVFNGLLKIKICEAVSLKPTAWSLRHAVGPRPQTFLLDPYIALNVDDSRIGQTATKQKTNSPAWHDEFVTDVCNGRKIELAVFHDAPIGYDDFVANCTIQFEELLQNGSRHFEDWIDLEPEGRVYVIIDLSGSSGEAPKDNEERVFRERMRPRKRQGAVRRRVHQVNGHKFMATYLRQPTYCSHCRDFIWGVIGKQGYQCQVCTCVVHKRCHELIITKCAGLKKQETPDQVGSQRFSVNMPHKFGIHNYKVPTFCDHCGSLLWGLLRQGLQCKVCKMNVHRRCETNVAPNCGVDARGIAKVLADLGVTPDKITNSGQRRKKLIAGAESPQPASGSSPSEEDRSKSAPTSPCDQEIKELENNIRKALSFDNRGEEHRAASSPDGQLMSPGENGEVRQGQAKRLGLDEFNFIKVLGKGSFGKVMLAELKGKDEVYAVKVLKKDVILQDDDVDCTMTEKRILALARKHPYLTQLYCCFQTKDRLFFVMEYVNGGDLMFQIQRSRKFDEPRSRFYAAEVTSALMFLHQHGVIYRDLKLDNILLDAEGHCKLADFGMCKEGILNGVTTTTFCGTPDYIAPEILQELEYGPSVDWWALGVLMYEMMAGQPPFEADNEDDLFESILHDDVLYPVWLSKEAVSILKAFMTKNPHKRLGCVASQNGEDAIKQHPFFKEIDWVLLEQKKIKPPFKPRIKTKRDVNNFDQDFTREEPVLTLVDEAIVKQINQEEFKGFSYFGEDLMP

[9] = test system: Proto-oncogene tyrosine-protein kinase receptor Ret (Homo sapiens), P07949 [V804M]; experiment: Binding affinity to human partial length RET V804M mutant (E713 to D1014 residues) expressed in bacterial expression system assessed as residual binding level at 1 uM by Kinomescan method relative to control
[10] = test system: Mast/stem cell growth factor receptor Kit (Homo sapiens), P10721 [L576P]; experiment: Binding affinity to human partial length KIT L576P mutant (Y545 to D952 residues) expressed in bacterial expression system assessed as residual binding level at 1 uM by Kinomescan method relative to control
Chain of Mast/stem cell growth factor receptor Kit (Homo sapiens), P10721 [L576P] (P10721 whole entry L576P, the tested form may be a part): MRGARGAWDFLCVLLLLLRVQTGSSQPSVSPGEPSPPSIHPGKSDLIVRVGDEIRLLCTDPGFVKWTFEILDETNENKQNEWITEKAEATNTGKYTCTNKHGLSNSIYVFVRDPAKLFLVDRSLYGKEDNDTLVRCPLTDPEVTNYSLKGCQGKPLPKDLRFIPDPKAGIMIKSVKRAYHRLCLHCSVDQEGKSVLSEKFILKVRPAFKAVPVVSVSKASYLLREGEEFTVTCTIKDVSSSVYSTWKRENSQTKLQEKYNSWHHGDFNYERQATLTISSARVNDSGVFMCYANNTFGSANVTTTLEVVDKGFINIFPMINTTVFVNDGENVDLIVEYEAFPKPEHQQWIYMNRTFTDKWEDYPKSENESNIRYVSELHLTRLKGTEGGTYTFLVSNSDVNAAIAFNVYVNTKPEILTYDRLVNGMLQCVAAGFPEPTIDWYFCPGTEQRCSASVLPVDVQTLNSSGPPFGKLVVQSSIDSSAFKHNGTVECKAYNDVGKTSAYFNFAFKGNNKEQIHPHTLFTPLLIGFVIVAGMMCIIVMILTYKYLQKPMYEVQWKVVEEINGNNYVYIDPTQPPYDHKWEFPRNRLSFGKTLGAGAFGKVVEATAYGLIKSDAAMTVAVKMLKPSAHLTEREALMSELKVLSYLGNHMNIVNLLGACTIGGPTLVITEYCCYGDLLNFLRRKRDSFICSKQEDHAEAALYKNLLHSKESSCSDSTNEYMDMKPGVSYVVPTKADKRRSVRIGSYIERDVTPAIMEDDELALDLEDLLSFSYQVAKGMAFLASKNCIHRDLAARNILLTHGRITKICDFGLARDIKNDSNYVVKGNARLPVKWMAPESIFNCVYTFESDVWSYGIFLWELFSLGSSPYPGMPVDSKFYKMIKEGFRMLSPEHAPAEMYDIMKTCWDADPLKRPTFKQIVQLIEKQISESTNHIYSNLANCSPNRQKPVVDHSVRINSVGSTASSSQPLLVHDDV

[11] = biological target: Serine/threonine-protein kinase BRSK1 (Homo sapiens) (UniProt Q8TDC3); experiment: Binding affinity to wild-type human partial length BRSK1 (M1 to E754 residues) expressed in bacterial expression system assessed as residual binding level at 1 uM by Kinomescan method relative to control
[12] = biological target: Phosphatidylinositol 5-phosphate 4-kinase type-2 beta (Homo sapiens) (UniProt P78356); experiment: Binding affinity to wild-type human full length PIP5K2B (M1 to T416 residues) expressed in bacterial expression system assessed as residual binding level at 1 uM by Kinomescan method relative to control
Chain of Phosphatidylinositol 5-phosphate 4-kinase type-2 beta (Homo sapiens) (P78356 whole entry, the tested form may be a part): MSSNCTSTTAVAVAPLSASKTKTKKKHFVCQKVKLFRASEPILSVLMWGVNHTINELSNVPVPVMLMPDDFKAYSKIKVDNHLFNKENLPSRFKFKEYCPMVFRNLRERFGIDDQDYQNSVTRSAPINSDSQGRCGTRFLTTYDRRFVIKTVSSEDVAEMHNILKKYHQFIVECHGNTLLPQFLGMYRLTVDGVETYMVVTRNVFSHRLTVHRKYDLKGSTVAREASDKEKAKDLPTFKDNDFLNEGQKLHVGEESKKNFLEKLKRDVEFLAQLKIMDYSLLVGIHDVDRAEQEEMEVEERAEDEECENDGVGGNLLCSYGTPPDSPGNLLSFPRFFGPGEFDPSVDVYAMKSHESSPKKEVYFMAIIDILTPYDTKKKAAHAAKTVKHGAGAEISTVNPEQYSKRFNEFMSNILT

[13] = biological target: Mitogen-activated protein kinase kinase kinase 5 (Homo sapiens) (UniProt Q99683); experiment: Binding affinity to wild-type human partial length ASK1 (E648 to S964 residues) expressed in bacterial expression system assessed as residual binding level at 1 uM by Kinomescan method relative to control
[14] = biological target: cAMP-dependent protein kinase catalytic subunit beta (Homo sapiens) (UniProt P22694); experiment: Binding affinity to wild-type human full length PKAC-beta (M1 to F351 residues) expressed in bacterial expression system assessed as residual binding level at 1 uM by Kinomescan method relative to control
[15] = biological target: RAF proto-oncogene serine/threonine-protein kinase (Homo sapiens) (UniProt P04049); experiment: Binding affinity to wild-type human partial length RAF1 (I330 to T640 residues) expressed in bacterial expression system assessed as residual binding level at 1 uM by Kinomescan method relative to control
Chain of RAF proto-oncogene serine/threonine-protein kinase (Homo sapiens) (P04049 whole entry, the tested form may be a part): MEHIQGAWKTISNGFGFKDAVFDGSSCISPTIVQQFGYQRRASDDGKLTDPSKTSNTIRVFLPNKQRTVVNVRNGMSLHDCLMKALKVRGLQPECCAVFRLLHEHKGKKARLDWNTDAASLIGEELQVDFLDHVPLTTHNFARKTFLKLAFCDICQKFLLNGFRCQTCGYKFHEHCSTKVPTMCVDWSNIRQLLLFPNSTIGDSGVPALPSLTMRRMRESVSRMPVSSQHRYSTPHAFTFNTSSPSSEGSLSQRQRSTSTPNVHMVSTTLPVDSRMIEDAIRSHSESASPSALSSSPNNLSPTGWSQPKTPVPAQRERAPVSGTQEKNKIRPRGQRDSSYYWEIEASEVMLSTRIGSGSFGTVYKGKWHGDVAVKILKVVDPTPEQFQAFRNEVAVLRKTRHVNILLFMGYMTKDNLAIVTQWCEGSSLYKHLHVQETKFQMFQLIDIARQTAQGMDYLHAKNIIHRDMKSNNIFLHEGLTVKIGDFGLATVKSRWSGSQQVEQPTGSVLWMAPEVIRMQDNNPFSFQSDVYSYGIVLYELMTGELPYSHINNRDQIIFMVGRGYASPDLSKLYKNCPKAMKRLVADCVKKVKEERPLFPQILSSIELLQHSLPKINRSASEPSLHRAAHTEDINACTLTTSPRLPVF

[16] = biological target: Rhodopsin kinase GRK7 (Homo sapiens) (UniProt Q8WTQ7); experiment: Binding affinity to wild-type human full length GRK7 (M1 to L553 residues) expressed in mammalian expression system assessed as residual binding level at 1 uM by Kinomescan method relative to control
[17] = biological target: Myosin-IIIb (Homo sapiens) (UniProt Q8WXR4); experiment: Binding affinity to wild-type human partial length MYO3B (M1 to D357 residues) expressed in bacterial expression system assessed as residual binding level at 1 uM by Kinomescan method relative to control
[18] = biological target: Receptor-interacting serine/threonine-protein kinase 4 (Homo sapiens) (UniProt P57078); experiment: Binding affinity to wild-type human partial length RIPK4 (M1 to V303 residues) expressed in mammalian expression system assessed as residual binding level at 1 uM by Kinomescan method relative to control
[19] = test system: Tyrosine-protein kinase ABL1 (Homo sapiens), P00519 [M351T]; experiment: Binding affinity to human phosphorylated ABL1 M351T mutant (S229 to K512 residues) expressed in mammalian expression system assessed as residual binding level at 1 uM by Kinomescan method relative to control
[20] = biological target: Cyclin-dependent kinase 15 (Homo sapiens) (UniProt Q96Q40); experiment: Binding affinity to wild-type human full length PFTAIRE2 (M1 to W384 residues) expressed in bacterial expression system assessed as residual binding level at 1 uM by Kinomescan method relative to control
[21] = test system: Phosphatidylinositol 4,5-bisphosphate 3-kinase catalytic subunit alpha isoform (Homo sapiens), P42336 [H1047L]; experiment: Binding affinity to human partial length PIK3CA H1047L mutant (R108 to N1068 residues) expressed in mammalian expression system assessed as residual binding level at 1 uM by Kinomescan method relative to control
Chain of Phosphatidylinositol 4,5-bisphosphate 3-kinase catalytic subunit alpha isoform (Homo sapiens), P42336 [H1047L] (P42336 whole entry H1047L, the tested form may be a part, canonical isoform): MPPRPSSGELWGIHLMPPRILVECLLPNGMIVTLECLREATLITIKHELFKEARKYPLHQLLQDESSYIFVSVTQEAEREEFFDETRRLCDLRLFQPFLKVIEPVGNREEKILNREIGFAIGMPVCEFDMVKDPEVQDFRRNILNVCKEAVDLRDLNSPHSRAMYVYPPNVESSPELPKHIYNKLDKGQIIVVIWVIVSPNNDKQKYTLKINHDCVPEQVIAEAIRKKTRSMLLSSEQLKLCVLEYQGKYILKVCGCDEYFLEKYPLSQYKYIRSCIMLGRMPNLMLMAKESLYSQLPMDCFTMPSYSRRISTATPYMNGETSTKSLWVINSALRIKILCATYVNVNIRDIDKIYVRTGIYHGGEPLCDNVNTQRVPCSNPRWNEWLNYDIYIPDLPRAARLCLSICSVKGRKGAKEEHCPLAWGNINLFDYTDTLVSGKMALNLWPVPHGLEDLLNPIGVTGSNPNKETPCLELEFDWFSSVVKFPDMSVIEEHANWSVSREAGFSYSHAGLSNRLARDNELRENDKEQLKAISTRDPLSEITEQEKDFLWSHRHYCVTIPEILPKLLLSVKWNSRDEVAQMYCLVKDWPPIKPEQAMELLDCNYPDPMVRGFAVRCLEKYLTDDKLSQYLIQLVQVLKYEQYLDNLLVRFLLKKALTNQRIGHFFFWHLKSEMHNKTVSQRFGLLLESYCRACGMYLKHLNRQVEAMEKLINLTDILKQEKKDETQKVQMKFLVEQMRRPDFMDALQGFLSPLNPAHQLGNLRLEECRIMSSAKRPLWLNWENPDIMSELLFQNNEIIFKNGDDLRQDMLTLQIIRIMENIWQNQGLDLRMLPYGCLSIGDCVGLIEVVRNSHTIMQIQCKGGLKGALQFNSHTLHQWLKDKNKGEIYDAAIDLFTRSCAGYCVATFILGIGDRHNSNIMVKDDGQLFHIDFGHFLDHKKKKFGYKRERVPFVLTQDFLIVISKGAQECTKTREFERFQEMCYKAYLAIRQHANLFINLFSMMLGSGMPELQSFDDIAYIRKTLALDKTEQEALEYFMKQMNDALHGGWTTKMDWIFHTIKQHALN

[22] = biological target: Proto-oncogene tyrosine-protein kinase Src (Homo sapiens) (UniProt P12931); experiment: Binding affinity to wild-type human partial length SRC (L240 to L536 residues) expressed in bacterial expression system assessed as residual binding level at 1 uM by Kinomescan method relative to control
[23] = biological target: NT-3 growth factor receptor (Homo sapiens) (UniProt Q16288); experiment: Binding affinity to wild-type human partial length TRKC (Q531 to G825 residues) expressed in mammalian expression system assessed as residual binding level at 1 uM by Kinomescan method relative to control
[24] = test system: Hepatocyte growth factor receptor (Homo sapiens), P08581 [M1250T]; experiment: Binding affinity to human partial length MET M1250T mutant (D1010 to S1367 residues) expressed in bacterial expression system assessed as residual binding level at 1 uM by Kinomescan method relative to control

CC(C)Nc1sc(C(=O)c2ccc(Cl)s2)c(N)c1C#N
Activity [1]: 63% | Activity [2]: 89% | Activity [3]: 65% | Activity [4]: 46% | Activity [5]: 93% | Activity [6]: 92% | Activity [7]: 87% | Activity [8]: 85% | Activity [9]: 94% | Activity [10]: 64% | Activity [11]: 92% | Activity [12]: 100% | Activity [13]: 100% | Activity [14]: 100% | Activity [15]: 71% | Activity [16]: 95% | Activity [17]: 98% | Activity [18]: 100% | Activity [19]: 100% | Activity [20]: 79% | Activity [21]: 99% | Activity [22]: 83% | Activity [23]: 87% | Activity [24]: 78%
